Source: the supplement of paper PMC10307832

What was measured:
Test in all cases: relative viability (nuclei count vs DMSO), 5 days (fraction); higher = more cells survive
Bosutinib = compound: COc1cc(Nc2c(C#N)cnc3cc(OCCCN4CCN(C)CC4)c(OC)cc23)c(Cl)cc1Cl [Bosutinib]
Outline: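 Lung cancer cell lines were seeded into 1536-well plates, kept overnight at 37 °C and pinned with five library-drug doses (not always all listed) spaced by √10. After 5 days, nuclei were Hoechst-stained, imaged at 4× and counted with MetaXpress. Viability is treated-well nuclei over vehicle-well nuclei, taken as a median across plates. Plates needed control CV below 25% and at least one doubling.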

Bosutinib + Vorinostat = compound: COc1cc(Nc2c(C#N)cnc3cc(OCCCN4CCN(C)CC4)c(OC)cc23)c(Cl)cc1Cl [Bosutinib] + O=C(CCCCCCC(=O)Nc1ccccc1)NO [Vorinostat] (partner 1 µM)
Outline: (§1)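 Relative viability divides the nuclei count in treated wells by that in vehicle wells. Lung cancer cell lines were seeded in 1536-well plates, dosed by pin tool the next day, and fixed and stained after 5 days in one step with final 0.05% Triton X-100, 1% formaldehyde and 1 ug/ml Hoechst. Dosing was a single drug or a fixed anchor-drug dose plus five library-drug doses (not always all listed) in √10 steps, and values are medians of duplicate plates imaged at 4×.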

Bosutinib + Linsitinib = compound: COc1cc(Nc2c(C#N)cnc3cc(OCCCN4CCN(C)CC4)c(OC)cc23)c(Cl)cc1Cl [Bosutinib] + C[C@]1(O)C[C@@H](c2nc(-c3ccc4ccc(-c5ccccc5)nc4c3)c3c(N)nccn32)C1 [Linsitinib] (partner 1 µM)
Outline: as §1

Bosutinib + Luminespib = compound: COc1cc(Nc2c(C#N)cnc3cc(OCCCN4CCN(C)CC4)c(OC)cc23)c(Cl)cc1Cl [Bosutinib] + CCNC(=O)c1noc(-c2cc(C(C)C)c(O)cc2O)c1-c1ccc(CN2CCOCC2)cc1 [Luminespib] (partner 0.01 µM)
Outline: as §1

Bosutinib + Crizotinib = compound: COc1cc(Nc2c(C#N)cnc3cc(OCCCN4CCN(C)CC4)c(OC)cc23)c(Cl)cc1Cl [Bosutinib] + C[C@@H](Oc1cc(-c2cnn(C3CCNCC3)c2)cnc1N)c1c(Cl)ccc(F)c1Cl [Crizotinib] (partner 1 µM)
Outline: as §1

Cell Line | relative viability (Bosutinib; 0.01 µM) | relative viability (Bosutinib; 0.03162 µM) | relative viability (Bosutinib; 0.1 µM) | relative viability (Bosutinib; 1 µM) | relative viability (Bosutinib + Vorinostat; first compound 0.01 µM) | relative viability (Bosutinib + Vorinostat; first compound 0.03162 µM) | relative viability (Bosutinib + Vorinostat; first compound 0.1 µM) | relative viability (Bosutinib + Vorinostat; first compound 1 µM) | relative viability (Bosutinib + Linsitinib; first compound 0.01 µM) | relative viability (Bosutinib + Linsitinib; first compound 0.03162 µM) | relative viability (Bosutinib + Linsitinib; first compound 0.1 µM) | relative viability (Bosutinib + Linsitinib; first compound 1 µM) | relative viability (Bosutinib + Luminespib; first compound 0.01 µM) | relative viability (Bosutinib + Luminespib; first compound 0.03162 µM) | relative viability (Bosutinib + Luminespib; first compound 0.1 µM) | relative viability (Bosutinib + Luminespib; first compound 1 µM) | relative viability (Bosutinib + Crizotinib; first compound 0.01 µM) | relative viability (Bosutinib + Crizotinib; first compound 0.03162 µM) | relative viability (Bosutinib + Crizotinib; first compound 0.1 µM) | relative viability (Bosutinib + Crizotinib; first compound 1 µM)
LOU-NH91 | 0.941 | 0.999 | 0.971 | 0.779 | 0.903 | 0.922 | 0.92 | 0.819 | 0.939 | 0.921 | 0.834 | 0.521 | 0.315 | 0.36 | 0.38 | 0.178 | 0.737 | 0.723 | 0.707 | 0.49
LU99A | 0.958 | 1.02 | 1.04 | 0.606 | 0.51 | 0.495 | 0.573 | 0.483 | 0.587 | 0.576 | 0.584 | 0.678 | 0.231 | 0.258 | 0.242 | 0.242 | 0.527 | 0.561 | 0.563 | 0.647
LXF-289 | 1 | 1.01 | 1.03 | 1.01 | 0.808 | 0.852 | 0.792 | 0.758 | 0.948 | 0.971 | 0.946 | 1.01 | 0.718 | 0.674 | 0.702 | 0.689 | 0.829 | 0.823 | 0.79 | 0.898
NCI-H23 | 1.13 | 0.997 | 1.04 | 0.872 | 0.779 | 0.622 | 0.651 | 0.619 | 0.442 | 0.556 | 0.647 | 0.46 | 0.197 | 0.205 | 0.204 | 0.195 | 0.636 | 0.464 | 0.512 | 0.458
NCI-H322M | 0.889 | 0.985 | 0.98 | 0.576 | 0.751 | 0.856 | 0.857 | 0.54 | 0.964 | 0.954 | 1.03 | 0.789 | 0.771 | 0.754 | 0.793 | 0.333 | 1.08 | 0.949 | 0.968 | 1
NCI-H358 | 0.964 | 0.913 | 0.961 | 0.685 | 0.634 | 0.697 | 0.548 | 0.483 | 0.787 | 0.753 | 0.602 | 0.594 | 0.28 | 0.331 | 0.372 | 0.439 | 0.516 | 0.512 | 0.505 | 0.647
NCI-H441 | 1.1 | 1.1 | 1.31 | 1.03 | 0.827 | 0.885 | 0.936 | 0.835 | 0.583 | 0.504 | 0.58 | 0.543 | 0.362 | 0.425 | 0.448 | 0.412 | 0.909 | 0.705 | 0.808 | 1.3
NCI-H460 | 1.02 | 0.976 | 0.967 | 0.875 | 0.719 | 0.717 | 0.761 | 0.775 | 0.753 | 0.835 | 0.668 | 0.338 | 0.0343 | 0.0293 | 0.0274 | 0.0252 | 0.85 | 0.884 | 0.859 | 0.639
NCI-H520 | 1.02 | 1.11 | 0.953 | 0.775 | 0.729 | 0.735 | 0.724 | 0.708 | 1.05 | 1.05 | 1.03 | 0.767 | 0.199 | 0.236 | 0.223 | 0.214 | 0.806 | 0.74 | 0.635 | 0.676
NCI-H596 | 1.11 | 1.03 | 0.984 | 0.863 | 0.685 | 0.557 | 0.509 | 0.573 | 0.941 | 0.978 | 1.16 | 0.831 | 0.935 | 0.938 | 0.959 | 1.1 | 0.923 | 0.884 | 0.989 | 0.743
NCI-H647 | 1.07 | 0.933 | 0.928 | 0.627 | 0.584 | 0.568 | 0.667 | 0.642 | 0.913 | 1.11 | 1.21 | 0.817 | 0.202 | 0.284 | 0.159 | 0.183 | 1.03 | 1.23 | 1.07 | 0.687
NCI-H650 | 1 | 1.06 | 1.08 | 1.11 | 0.446 | 0.356 | 0.483 | 0.415 | 1.17 | 0.846 | 0.985 | 1.21 | 0.838 | 0.713 | 0.744 | 0.898 | 0.791 | 0.644 | 0.73 | 0.808
NCI-H661 | 0.97 | 1.09 | 1.06 | 0.731 | 0.784 | 0.912 | 0.866 | 0.829 | 0.678 | 0.571 | 0.57 | 0.323 | 0.947 | 0.964 | 0.963 | 0.758 | – | 1.06 | 0.989 | 0.633
NCI-H727 | 0.911 | 0.929 | 0.985 | 0.632 | 1.04 | 1.27 | 1.33 | 0.973 | 0.231 | 0.386 | 0.305 | 0.182 | 0.233 | 0.477 | 0.55 | 0.504 | 0.725 | 0.885 | 0.701 | 0.378
NCI-H838 | 0.975 | 0.942 | 0.953 | 0.693 | 0.741 | 0.766 | 0.755 | 0.746 | 1.04 | 0.97 | 0.951 | 0.466 | 0.327 | 0.269 | 0.385 | 0.237 | 0.845 | 0.79 | 0.737 | 0.354
